Activity calls are given as the source filed them. No cut-off for these calls is given here.
Tests used:
[1] = biological target: Histamine H1 receptor (Homo sapiens, UniProt P35367); test: Displacement of [3H]mepyramine from human histamine H1 receptor expressed in sf9 insect cell membranes co-expressing RGS4 incubated for 60 mins by microbeta scintillation counting method; set-up: species or system Membrane
[2] = biological target: T1, Histamine H2 receptor (Homo sapiens, UniProt P25021); test: Displacement of [3H]UR-DE257 from human histamine H2 receptor expressed in sf9 insect cell membranes co-expressing GSalphaS incubated for 60 mins by microbeta scintillation counting method; set-up: species or system Membrane
[3] = biological target: Histamine H3 receptor (Homo sapiens, UniProt Q9Y5N1); test: Displacement of [3H]UR-P129 from human histamine H3 receptor expressed in sf9 insect cell membranes co-expressing Galphai2/Gbeta1gamma2 incubated for 60 mins by microbeta scintillation counting method; set-up: species or system Membrane
[4] = biological target: T1, Histamine H2 receptor; test: Agonist activity at human histamine receptor expressed in sf9 insect cell membranes co-exprssing GsalphaS incubated for 90 mins [35S]GTPgammaS binding based microbeta scintillation counting analysis; assay type: functional, Membrane
[5] = biological target: T1, Histamine H2 receptor; test: Agonist activity at human histamine H2 receptor expressed in HEK293T cells co-expressing ELucC by beta arrestin2 recruitment assay; assay type: functional, cell-based
[6] = biological target: T1, Histamine H2 receptor; test: Agonist activity at human histamine H2 receptor expressed in HEK293T cells co-expressing ELucC assessed as intrinsic activity at >= 30 uM by beta arrestin2 recruitment assay relative to histamine; assay type: functional, cell-based; details: filed as agonist, dose microM >=30
[7] = biological target: T1, Histamine H2 receptor; test: Agonist activity at human histamine H2 receptor expressed in sf9 insect cell membranes co-exprssing GsalphaS assessed as intrinsic activity at >=30 uM incubated for 90 mins [35S]GTPgammaS binding based microbeta scintillation counting analysis relative to histamine; assay type: functional; details: Membrane, filed as agonist, dose microM >=30, time 90.0 min
[8] = biological target: Histamine H4 receptor (Homo sapiens, UniProt Q9H3N8)
[9] = Dissociation constant, pKa1 of compound in HCL or HCL salt; assay type: physicochemical; details: HCl or HCl salt solution
[10] = Dissociation constant, pKa2 of compound in HCL or HCL salt; assay type: physicochemical; details: HCl or HCl salt solution
[11] = biological target: Histamine H2 receptor (Cavia porcellus, UniProt P47747); test: (§1) Agonist activity at guinea pig right atrium histamine H2 receptor assessed as increase in heart rate incubated for 30 mins in presence of cimetidine; assay type: functional, tissue-based, Right cardiac atrium
[12] = biological target: T2, D(3) dopamine receptor (Homo sapiens, UniProt P35462); test: Displacement of [3H]N-methylspiperone from human D3 receptor expressed in HEK293T cells co-expressing CRE-Luc incubated for 60 mins by microbeta scintillation counting method; assay type: cell-based
[13] = biological target: T2, D(3) dopamine receptor; test: Agonist activity at […] expressed in HEK293T cells co-expressing ELucC by beta arrestin2 recruitment assay; assay type: functional, cell-based
[14] = Dissociation constant, pKa of compound in NaOH; assay type: physicochemical; details: NaOH solution
[15] = Dissociation constant, pKa of compound in aqueous solution in presence of EtOH by spectrometric method; details: aqueous solution with EtOH
[16] = biological target: T1, Histamine H2 receptor; details: Sf9, Membrane, filed as agonist, time 90.0 min
[17] = biological target: T3, D(2) dopamine receptor (Homo sapiens, UniProt P14416); test: Displacement of [3H]N-methylspiperone from human D2L receptor expressed in HEK293T cells co-expressing CRE-Luc incubated for 60 mins by microbeta scintillation counting method; assay type: cell-based
[18] = biological target: Histamine H2 receptor (Cavia porcellus) (UniProt P47747); test: Agonist activity at guinea pig right atrium histamine H2 receptor assessed as intrinsic activity incubated for 30 mins in presence of cimetidine relative to histamine; assay type: functional, tissue-based; details: Right cardiac atrium, filed as agonist
[19] = biological target: T3, D(2) dopamine receptor; assay type: functional, cell-based, HEK293T
[20] = Dissociation constant, pKa of compound in aqueous solution; assay type: physicochemical
[21] = Dissociation constant, pKa of compound in aqueous solution in presence of HCL; assay type: physicochemical; details: aqueous solution with HCl
[22] = biological target: Histamine H2 receptor (Cavia porcellus) (UniProt P47747); test: as §1; assay type: functional, tissue-based; details: Right cardiac atrium

T3 sequence (P14416 whole entry): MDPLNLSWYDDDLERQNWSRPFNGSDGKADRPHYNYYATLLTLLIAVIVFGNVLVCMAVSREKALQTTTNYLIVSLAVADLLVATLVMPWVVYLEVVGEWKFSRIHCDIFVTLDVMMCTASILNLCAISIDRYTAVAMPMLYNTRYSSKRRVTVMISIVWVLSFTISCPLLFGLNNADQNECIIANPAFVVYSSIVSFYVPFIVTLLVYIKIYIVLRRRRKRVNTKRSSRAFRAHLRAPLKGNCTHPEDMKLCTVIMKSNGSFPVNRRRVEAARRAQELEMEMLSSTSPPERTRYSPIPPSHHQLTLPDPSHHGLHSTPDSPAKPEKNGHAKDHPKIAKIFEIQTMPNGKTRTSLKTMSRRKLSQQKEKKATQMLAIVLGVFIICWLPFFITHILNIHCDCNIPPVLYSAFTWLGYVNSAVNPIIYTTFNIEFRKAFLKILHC
Sequence of Histamine H1 receptor (P35367 whole entry): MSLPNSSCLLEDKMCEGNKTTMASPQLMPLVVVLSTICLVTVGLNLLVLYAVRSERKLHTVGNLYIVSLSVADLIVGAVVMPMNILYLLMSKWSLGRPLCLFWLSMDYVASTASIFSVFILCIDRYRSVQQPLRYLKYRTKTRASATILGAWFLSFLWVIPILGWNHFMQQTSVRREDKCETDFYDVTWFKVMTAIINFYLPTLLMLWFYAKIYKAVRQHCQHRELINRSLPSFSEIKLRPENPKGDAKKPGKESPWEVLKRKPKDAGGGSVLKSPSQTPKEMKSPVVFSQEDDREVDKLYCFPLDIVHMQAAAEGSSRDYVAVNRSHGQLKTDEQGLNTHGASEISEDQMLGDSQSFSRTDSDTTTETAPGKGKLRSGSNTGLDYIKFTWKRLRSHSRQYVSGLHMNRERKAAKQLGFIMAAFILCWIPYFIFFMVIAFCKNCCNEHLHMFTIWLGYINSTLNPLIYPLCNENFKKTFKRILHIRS
Sequence of Histamine H4 receptor (Q9H3N8 whole entry): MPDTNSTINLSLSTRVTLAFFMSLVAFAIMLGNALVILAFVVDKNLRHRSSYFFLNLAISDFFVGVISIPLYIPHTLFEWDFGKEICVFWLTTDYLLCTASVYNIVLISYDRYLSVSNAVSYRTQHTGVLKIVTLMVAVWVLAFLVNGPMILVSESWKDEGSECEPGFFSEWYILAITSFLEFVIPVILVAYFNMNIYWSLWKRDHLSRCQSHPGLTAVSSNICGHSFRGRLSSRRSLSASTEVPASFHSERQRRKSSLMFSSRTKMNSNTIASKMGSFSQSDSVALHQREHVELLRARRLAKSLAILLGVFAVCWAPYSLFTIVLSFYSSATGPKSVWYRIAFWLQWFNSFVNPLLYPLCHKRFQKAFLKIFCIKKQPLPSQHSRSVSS
Sequence of Histamine H3 receptor (Q9Y5N1 whole entry): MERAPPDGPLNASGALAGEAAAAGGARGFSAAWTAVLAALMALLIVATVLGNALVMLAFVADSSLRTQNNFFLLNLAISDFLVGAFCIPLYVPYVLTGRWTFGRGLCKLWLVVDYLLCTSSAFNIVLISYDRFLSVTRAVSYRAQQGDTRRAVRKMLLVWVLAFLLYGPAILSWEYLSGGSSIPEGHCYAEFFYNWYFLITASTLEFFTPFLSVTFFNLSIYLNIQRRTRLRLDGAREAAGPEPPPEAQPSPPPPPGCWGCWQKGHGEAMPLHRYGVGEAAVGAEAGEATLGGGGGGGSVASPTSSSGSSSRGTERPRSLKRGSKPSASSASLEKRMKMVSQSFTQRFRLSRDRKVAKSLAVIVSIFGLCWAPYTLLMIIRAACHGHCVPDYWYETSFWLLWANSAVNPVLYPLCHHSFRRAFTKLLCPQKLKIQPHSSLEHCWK
Sequence of Histamine H2 receptor (Cavia porcellus) (P47747 whole entry): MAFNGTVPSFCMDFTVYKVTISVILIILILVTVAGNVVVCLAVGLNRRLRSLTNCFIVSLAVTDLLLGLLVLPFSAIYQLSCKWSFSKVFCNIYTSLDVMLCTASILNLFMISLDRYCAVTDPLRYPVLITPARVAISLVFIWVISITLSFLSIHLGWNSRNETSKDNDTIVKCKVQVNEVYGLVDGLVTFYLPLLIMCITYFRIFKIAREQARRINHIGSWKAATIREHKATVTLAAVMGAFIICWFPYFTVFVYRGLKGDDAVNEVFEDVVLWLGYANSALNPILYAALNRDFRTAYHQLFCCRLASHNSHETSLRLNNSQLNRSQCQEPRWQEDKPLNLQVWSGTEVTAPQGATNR
Sequence of Histamine H2 receptor (Cavia porcellus, UniProt P47747) (P47747 whole entry): as above
T1 sequence (P25021 whole entry): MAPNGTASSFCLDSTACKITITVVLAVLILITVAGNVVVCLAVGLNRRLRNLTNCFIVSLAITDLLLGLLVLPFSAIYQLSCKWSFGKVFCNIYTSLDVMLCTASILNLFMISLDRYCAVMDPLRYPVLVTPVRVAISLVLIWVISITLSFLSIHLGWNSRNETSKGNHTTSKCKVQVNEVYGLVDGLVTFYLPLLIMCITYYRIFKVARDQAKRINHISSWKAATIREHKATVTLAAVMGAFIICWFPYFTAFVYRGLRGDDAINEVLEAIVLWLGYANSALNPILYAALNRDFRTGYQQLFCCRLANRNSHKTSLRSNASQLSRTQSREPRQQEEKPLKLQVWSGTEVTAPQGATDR
T2 sequence (P35462 whole entry): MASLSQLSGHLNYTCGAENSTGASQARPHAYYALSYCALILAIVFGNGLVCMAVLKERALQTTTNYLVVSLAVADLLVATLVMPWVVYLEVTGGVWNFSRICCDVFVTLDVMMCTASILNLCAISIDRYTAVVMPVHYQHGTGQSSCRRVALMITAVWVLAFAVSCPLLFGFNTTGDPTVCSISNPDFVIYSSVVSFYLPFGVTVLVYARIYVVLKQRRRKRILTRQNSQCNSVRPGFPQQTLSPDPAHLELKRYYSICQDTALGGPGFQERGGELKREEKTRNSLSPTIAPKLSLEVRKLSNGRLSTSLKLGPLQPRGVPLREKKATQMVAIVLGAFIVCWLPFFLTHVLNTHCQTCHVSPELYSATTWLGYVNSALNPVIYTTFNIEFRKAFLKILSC

Compound	Ki [1] [µM]	Ki [2] [µM]	Ki [3] [µM]	EC50 [4] [µM]	EC50 [5] [µM]	Intrinsic activity [7]	Ki [8] [µM]	Ki [12] [µM]	EC50 [13] [µM]	Ki [17] [µM]	EC50 [19] [µM]	further results
Cc1nc(N)sc1CCCN/C(N)=N/C(=O)NCC(c1ccccc1)C(C)C (stereo unspecified)	5.89	0.102	11.7	0.0309	0.158	0.52	5.89					Intrinsic activity [6]: 0.11
Cc1nc(N)sc1CCCN/C(N)=N/C(=O)N[C@H](C)c1ccccc1	8.71	0.0178	43.7		0.0457		13.5	0.00617	0.0155			pKa [9]: 4.68; pKa [10]: 7.47; EC50 [11]: 0.00759 µM
Cc1nc(N)sc1C												pKa [14]: 6.28; pKa [15]: 6.29
CCCNC(=O)/N=C(\N)Nc1cccc(-c2csc(N)n2)c1		5.25					> 100					pKb [16]: 4.91
CCCCCCNC(=O)/N=C(\N)NC1CCc2nc(N)sc2C1 (stereo unspecified)	1.95	1.12	1.51	0.148		0.16	16.6	1.26		1.26		
N/C(=N\C(=O)Nc1ccccc1)Nc1cccc(-c2csc(N)n2)c1		372					64.6					pKb [16]: 4.76
CCCCCCNC(=O)/N=C(\N)Nc1cccc(-c2csc(N)n2)c1		0.692	11				9.55	1.29		2.51		pKb [16]: 6.14
Cc1nc(N)sc1CCCN/C(N)=N/C(=S)N[C@H](C)c1ccccc1	110	0.115	64.6		0.372		26.9	0.0603	0.166	1.17	1.51	EC50 [11]: 0.0891 µM; Intrinsic activity [18]: 0.87
Cc1nc(N)sc1CCCN/C(N)=N/C(=O)NCC(C)C1CCCCC1 (stereo unspecified)	2.34	0.0398	10	0.0219	0.224	0.65	1.91	0.0437	0.263	0.263	3.24	Intrinsic activity [6]: 0.4
C[C@@H](NC(=O)/N=C(\N)NCCCc1ccccc1)c1ccccc1												pKa [14]: 7.96
CCCCCNC(=O)/N=C(\N)NCCCc1sc(N)nc1C	10.7	0.00447	10.5		0.178		4.27			0.447	1.05	EC50 [11]: 0.00575 µM
Cc1nc(N)sc1CCCN/C(N)=N/C(=O)NCc1ccccc1	6.17	0.0692	19.5	0.0288	0.1	0.91	19.1	0.0457	0.0339	0.603	1.66	
Cc1csc(N)n1												pKa [14]: 5.77; pKa [20]: 5.95; pKa [21]: 4.64
Cc1nc(N)sc1CCCN/C(N)=N/C(=O)NCC(C)c1ccc(C(C)C)cc1 (stereo unspecified)	4.9	0.148	7.94	0.0347	0.282	0.59	2.63					Intrinsic activity [6]: 0.25
Cc1nc(N)sc1CCCN/C(N)=N/C(=S)NCC(c1ccccc1)c1ccccc1	44.7	1.45	46.8				21.4					pEC50 [22]: inactive
N/C(=N\C(=O)NC1CCCCC1)Nc1cccc(-c2csc(N)n2)c1		4.47					13.5					pKb [16]: 5.4
CCC(CNC(=O)/N=C(\N)NCCCc1sc(N)nc1C)c1ccccc1 (stereo unspecified)	7.94	0.0776	16.6	0.0288	0.269		6.76	0.0646	0.0407			
CCCNC(=O)/N=C(\N)NCC												pKa [14]: 8.31
Cc1nc(N)sc1CCCN/C(N)=N/C(=O)NC(C)c1ccco1 (stereo unspecified)	45.7	0.0316	43.7		0.234		45.7	0.0174	0.102	1.7	1.07	EC50 [11]: 0.00977 µM; Intrinsic activity [18]: 1
CCCCCCNC(=O)/N=C(\N)NCCCc1sc(N)nc1C	7.76	0.0288	5.62	0.0389	0.0851	0.6	8.13	0.0141	0.0234	0.562	1.74	EC50 [11]: 0.0158 µM; Intrinsic activity [18]: 0.95
Cc1nc(N)sc1CCCN/C(N)=N/C(=O)NCC(C)CCc1ccccc1 (stereo unspecified)	1.35	0.0631	9.12	0.0295	0.355	0.69	3.24	0.0457	0.891	0.355	5.37	Intrinsic activity [6]: 0.2
N/C(=N\C(=O)NCc1ccccc1)NC1CCc2nc(N)sc2C1 (stereo unspecified)	1.2	0.513	3.31	0.214	4.37	0.53	30.2	5.01		0.55		
